Experimental data as given in patent publication US6028115A, “Method for preventing sexually transmitted diseases” (priority 1999, dated 2000).

How the values were obtained:
[1] = test system: sheep testicular hyaluronidase; test: hyaluronidase inhibition (hyaluronic acid hydrolysis); format: biochemical; conditions: pH 5.5, 10 minutes preincubation, 30 minutes at room temperature
Experimental: Hyaluronidase activity was quantitatively determined by measuring the extent of hyaluronic acid hydrolysis (i.e., the concentration of N-acetylglucosamine-reactive material formed from enzyme activity). Reaction mixtures (0.25 ml) containing the following were prepared: test compound (variable concentration); 0.1 M sodium acetate; 0.15 M sodium chloride; pH adjusted to 5.5; 7.2 units sheep testicular hyaluronidase (Sigma, Type III; H-2251) contained in an acetate buffer; 0.3 mg/ml hyaluronic acid (Sigma, from bovine vitreous humor; H-7630). The enzyme was preincubated with the test agent (1 mg/ml for screening purposes) for 10 minutes before starting the reaction by the addition of hyaluronic acid. The enzyme reaction was determined using the method of Aronson and Davidson (J. Biol. Chem. 241 437-440 (1967)). The reaction mixture was incubated for 30 minutes at room temperature. The reaction product was determined calorimetrically with p-dimethylaminobenzaldehyde (Reissig et al., J. Biol. Chem. 217 959-966 (1965)) by measuring the absorbance at 545 nm.
The reversibility of the hyaluronidase was determined by evaluating enzyme activity at different levels of enzyme (Ackermann and Potter, Proc. Soc. Exp. Biol. Med. 72 1-9 (1949)).

Lactobacillus gasseri = test: growth of normal vaginal flora bacterium in culture; format: cell-based; conditions: 0.5 mg/ml, anaerobic, 37° C.
Experimental: This example illustrates the effect of the inhibitory agents of this invention on the normal vaginal flora. Lactobacillus gasseri, which is found in normal vaginal flora, was obtained from the American Type Culture Collection (Rockville, Md.) and cultured under anaerobic conditions at 37° C. in the presence of the desired test agents. Control samples without added test agents were also run. Samples were collected at twenty minute intervals starting at 120 minutes after the start of incubation through 240 minutes. The absorbance at 550 nm was used to estimate the cell density and inhibitory effects. Nonoxynol-9 was also evaluated for comparison purposes.

MT2 cells = test: toxicity towards host cells of the virus assays; format: cell-based; conditions: concentration ranges used in the virus assays
Experimental: Serial dilutions of the test compounds (ranging from 0.1 μg/ml to 1.0 mg/ml) were added to HIV-1 virus such that 50 μl inoculum produced between 70 to 100 syncytia per well in untreated wells containing MT2 cells. The mHV-1 used was strain IIIs propagated in, and harvested from, a T4-lymphobastoid cell line. Each serial dilution of the test compound with virus was placed in each of three wells containing MT2 cells. The test compound alone was added to a fourth well containing MT2 cells to test for possible cytotoxicity. Triplicate virus control samples (no added test compounds but containing the equivalent amounts of the RPMI medium) were also included.

HIV-1 virus = conditions: general statement, no assay details; cited from earlier work
[2] = test system: bovine papillomavirus type I; conditions: general statement; cited from earlier work

Nonoxynol-9
IC50 [1]: inactive | inhibition of growth of Lactobacillus gasseri (Lactobacillus gasseri): about 60% | toxicity towards the host cells (MT2 cells): did show cytotoxic effects | inhibition of the enveloped virus HIV (statement) (HIV-1 virus): inhibits | inhibition of the non-enveloped papillomavirus (statement) [2]: not
